The text below walks through data of US8686023B2, “Salts of sunitinib” (Lek Pharmaceuticals D.D., priority 2008, dated 2014).

For the substance sunitinib L-malate, the “Solubility of sunitinib salts in water at 25° C.” value amounted to 2000 µg/mL.
